# The source made the active and inactive calls. The calls are words filed in the database; no cut-off is given here.
# Assays:
# [1] = Cytotoxicity in human DND41 cells assessed as reduction in cell viability incubated for 72 hrs by MTT assay; type: functional, cell-based; conditions: DND41, 72 h
# [2] = system: NCI-H460; assay: Cytotoxicity in human NCI-H460 cells assessed as reduction in cell viability incubated for 72 hrs by MTT assay; type: functional, cell-based; conditions: NCI-H460, 72 h
# [3] = system: HL-60; assay: Cytotoxicity in human HL-60 cells assessed as reduction in cell viability incubated for 72 hrs by MTT assay; type: functional, cell-based; conditions: HL-60, 72 h
# [4] = system: CAPAN-1; assay: Cytotoxicity in human CAPAN-1 cells assessed as reduction in cell viability incubated for 72 hrs by MTT assay; type: functional, cell-based; conditions: CAPAN-1, 72 h
# [5] = Resistance index, ratio of IC50 for cytotoxicity against p53 knock out human HCT-116 cells to IC50 for cytotoxicity against human HCT-116 cells; type: functional
# [6] = molecular target: T1, DNA topoisomerase 1 (Homo sapiens) (UniProt P11387); assay: Inhibition of topoisomerase 1 (unknown origin) assessed as relaxation of supercoiled plasmid pBR322 DNA at 1 to 5 uM incubated for 30 mins by electrophoresis; conditions: dose 1-5 µM
# T1 sequence (whole entry): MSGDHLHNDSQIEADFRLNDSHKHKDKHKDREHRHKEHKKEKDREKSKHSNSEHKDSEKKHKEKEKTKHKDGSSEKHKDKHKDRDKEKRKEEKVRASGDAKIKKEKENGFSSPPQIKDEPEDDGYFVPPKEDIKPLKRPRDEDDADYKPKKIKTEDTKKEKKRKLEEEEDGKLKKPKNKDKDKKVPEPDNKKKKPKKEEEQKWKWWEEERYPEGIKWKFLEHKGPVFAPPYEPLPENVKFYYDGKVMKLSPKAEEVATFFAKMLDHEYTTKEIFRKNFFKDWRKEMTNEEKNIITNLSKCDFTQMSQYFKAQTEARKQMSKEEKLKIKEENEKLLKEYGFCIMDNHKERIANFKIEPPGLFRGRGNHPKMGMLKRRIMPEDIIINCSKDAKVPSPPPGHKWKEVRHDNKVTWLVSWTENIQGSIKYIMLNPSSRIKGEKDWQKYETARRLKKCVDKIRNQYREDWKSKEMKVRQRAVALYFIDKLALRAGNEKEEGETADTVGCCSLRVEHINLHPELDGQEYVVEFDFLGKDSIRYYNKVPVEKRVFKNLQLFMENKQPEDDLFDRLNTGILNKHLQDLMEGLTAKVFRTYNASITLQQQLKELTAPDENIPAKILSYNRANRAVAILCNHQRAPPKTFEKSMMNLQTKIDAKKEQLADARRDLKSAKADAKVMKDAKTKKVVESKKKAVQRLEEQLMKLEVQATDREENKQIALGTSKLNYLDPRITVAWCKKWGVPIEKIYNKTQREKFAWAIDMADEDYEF
# [7] = system: K562; assay: Induction of apoptosis in human K562 cells assessed as activation of casapse-9 cleavage measured after 24 hrs by Western blot analysis; type: functional, cell-based
# [8] = system: K562; assay: Induction of cell cycle arrest in human K562 cells assessed as increase in accumulation at sub-G1 phase at 5 uM after 48 hrs by propidium iodide staining based flow cytometric analysis (reference value: 8.4%); type: functional
# [9] = system: K562; assay: Induction of cell cycle arrest in human K562 cells assessed as increase in accumulation at sub-G1 phase at 0.5 uM after 24 hrs by propidium iodide staining based flow cytometric analysis (reference value: 8.4%); type: functional
# [10] = system: HeLa; assay: Cytotoxicity in human HeLa cells assessed as reduction in cell viability incubated for 72 hrs by MTT assay; type: functional, cell-based
# [11] = Drug localization in nuclei of mouse NIH3T3 cells at 1 uM incubated for 5 to 60 mins by Hoechst 33258 staining based laser confocal microscopy; type: ADME, cell-based; conditions: nih3t3, 1 µM, time 5-60 min
# [12] = system: K562; assay: Induction of apoptosis in human K562 cells assessed as activation of PARP cleavage measured after 24 hrs by Western blot analysis; type: functional, cell-based
# [13] = system: K562; assay: Induction of cell cycle arrest in human K562 cells assessed as increase in accumulation at sub-G1 phase at 2.5 uM after 48 hrs by propidium iodide staining based flow cytometric analysis (reference value: 8.4%); type: functional
# [14] = system: K562; assay: Induction of cell cycle arrest in human K562 cells assessed as increase in accumulation at sub-G1 phase at 2.5 uM after 24 hrs by propidium iodide staining based flow cytometric analysis (reference value: 8.4%); type: functional
# [15] = Drug localization in lysosome of mouse NIH3T3 cells at 1 uM incubated for 5 mins by lyso-tracker red based confocal microscopic method; type: ADME, cell-based; conditions: nih3t3, 5 min
# [16] = system: HCT-116; assay: Cytotoxicity against p53 knock out human HCT-116 cells assessed as reduction in cell viability incubated for 72 hrs by MTT assay; type: functional, cell-based; conditions: HCT-116, 72 h
# [17] = system: HCT-116; assay: Cytotoxicity in human HCT-116 cells assessed as reduction in cell viability incubated for 72 hrs by MTT assay; type: functional, cell-based; conditions: HCT-116, 72 h
# [18] = Drug localization in cytoplasm of mouse NIH3T3 cells at 1 uM incubated for 5 to 60 mins by laser confocal microscopy; type: ADME, cell-based; conditions: nih3t3, 1 µM, time 5-60 min
# [19] = Drug localization in lysosome of mouse NIH3T3 cells at 1 uM incubated for 60 mins by lyso-tracker red based confocal microscopic method; type: ADME, cell-based; conditions: nih3t3, 1 h
# [20] = Cytotoxicity in human K562/4 cells assessed as reduction in cell viability incubated for 72 hrs by MTT assay; type: functional, cell-based; conditions: K562/4, 72 h
# [21] = system: K562; assay: Induction of apoptosis in human K562 cells assessed as activation of casapse-3 cleavage measured after 24 hrs by Western blot analysis; type: functional, cell-based; conditions: dose 2.5 µM
# [22] = system: K562; assay: Induction of ROS generation in human K562 cells at 5 uM after 30 to 60 mins by Deep Red dye based flow cytometry method; type: functional, cell-based; conditions: time 30-60 min
# [23] = Resistance index, ratio of IC50 for cytotoxicity against human K562/4 cells to IC50 for cytotoxicity against human K562 cells; type: functional
# [24] = Drug localization in mitochondria of mouse NIH3T3 cells at 1 uM measured after 60 mins by MitoTracker red based confocal microscopic method; type: ADME; conditions: nih3t3, 1 h
# [25] = system: Fibroblast; assay: Cytotoxicity in human Fibroblast cells assessed as reduction in cell viability incubated for 72 hrs by MTT assay; type: functional, cell-based
# [26] = Drug localization in mitochondria of mouse NIH3T3 cells at 1 uM measured after 5 mins by MitoTracker red based confocal microscopic method; type: ADME; conditions: nih3t3, 5 min
# [27] = system: Calf thymus DNA; assay: Binding affinity to calf thymus double strand DNA incubated for 5 mins by spectrophotometry; type: nucleic-acid assay; conditions: Bos taurus
# [28] = system: K562; assay: Induction of cell cycle arrest in human K562 cells assessed as increase in accumulation at sub-G1 phase at 5 uM after 24 hrs by propidium iodide staining based flow cytometric analysis (reference value: 8.4%); type: functional
# [29] = system: K562; assay: Induction of mitochondrial membrane potential loss in human K562 cells at 7.5 uM after 6 hrs by Mitotracker Red dye based flow cytometric analysis; type: functional, cell-based
# [30] = system: K562; assay: Induction of cell cycle arrest in human K562 cells assessed as increase in accumulation at sub-G1 phase at 0.5 uM after 48 hrs by propidium iodide staining based flow cytometric analysis (reference value: 8.4%); type: functional
compound,measurement,setting,value
N[C@H]1CCN(C(=O)c2csc3c(O)c4c(c(O)c23)C(=O)c2ccccc2C4=O)C1,IC50,[1],2600 nM
NCCN(CCN)C(=O)c1cc2c(O)c3c(c(O)c2s1)C(=O)c1ccccc1C3=O,IC50,[2],8.3 µM
same,IC50,[3],14100 nM
same,IC50,[4],16800 nM
same,IC50,[1],3100 nM
N[C@@H]1CN(C(=O)c2cc3c(O)c4c(c(O)c3s2)C(=O)c2ccccc2C4=O)C[C@H]1N,IC50,[2],16.1 µM
same,IC50,[3],> 20000 nM
same,IC50,[4],> 20000 nM
same,IC50,[1],10900 nM
O=C(N[C@@H]1CCNC1)c1cc2c(O)c3c(c(O)c2s1)C(=O)c1ccccc1C3=O,IC50,[2],4.1 µM
same,IC50,[3],2700 nM
same,IC50,[4],5800 nM
same,IC50,[1],1300 nM
O=C(NC1CCCNC1)c1cc2c(O)c3c(c(O)c2s1)C(=O)c1ccccc1C3=O (racemic),IC50,[2],1.4 µM
same,IC50,[3],1100 nM
same,IC50,[4],2300 nM
same,IC50,[1],1000 nM
Cc1c(C(=O)N2CC[C@H](N)C2)sc2c(O)c3c(c(O)c12)C(=O)c1ccccc1C3=O,IC50,[2],5 µM
same,IC50,[3],200 nM
same,IC50,[4],2200 nM
same,IC50,[1],1600 nM
N[C@H]1CCN(C(=O)c2cc3c(O)c4c(c(O)c3o2)C(=O)c2ccccc2C4=O)C1,Ratio,[5],1
same,inhibition,[6],Active
same,Activity,[7],inactive
same,Activity,[8],48.7%
same,Activity,[9],14.8%
same,IC50,[10],> 50 µM
same,Drug uptake,[11],Not Active
same,IC50,[2],> 20 µM
same,Activity,[12],inactive
same,Activity,[13],23%
same,Activity,[14],24.2%
same,Drug uptake,[15],Active
same,IC50,[3],700 nM
same,IC50,[16],> 50 µM
same,IC50,[17],> 50 µM
same,Drug uptake,[18],Active
same,Drug uptake,[19],Active
same,IC50,[20],600 nM
same,Activity,[21],inactive
same,Activity,[22],inactive
same,Ratio,[23],1.2
same,Drug uptake,[24],Not Active
same,IC50,[25],> 50000 nM
same,IC50,[4],> 20000 nM
same,IC50,[1],1500 nM
same,Drug uptake,[26],Not Active
same,Activity,[27],Active
same,Activity,[28],40.2%
same,Activity,[29],inactive
same,Activity,[30],7%
O=C(NC1CN2CCC1CC2)c1cc2c(O)c3c(c(O)c2s1)C(=O)c1ccccc1C3=O (stereo not drawn),IC50,[2],> 20 µM
same,IC50,[3],7300 nM
same,IC50,[4],4600 nM
same,IC50,[1],2400 nM
Cc1c(C(=O)N2CC[C@@H](N)C2)sc2c(O)c3c(c(O)c12)C(=O)c1ccccc1C3=O,IC50,[2],1.2 µM
same,IC50,[3],1800 nM
same,IC50,[4],2000 nM
same,IC50,[1],1400 nM
O=C(N[C@H]1CCNC1)c1cc2c(O)c3c(c(O)c2s1)C(=O)c1ccccc1C3=O,IC50,[2],3.5 µM
same,IC50,[3],2900 nM
same,IC50,[4],6300 nM
same,IC50,[1],1000 nM
NCCNC(=O)c1cc2c(O)c3c(c(O)c2s1)C(=O)c1ccccc1C3=O,IC50,[2],8.3 µM
same,IC50,[3],> 20000 nM
same,IC50,[4],> 20000 nM
same,IC50,[1],3700 nM
NC1CCCN(C(=O)c2cc3c(O)c4c(c(O)c3s2)C(=O)c2ccccc2C4=O)C1 (racemic),IC50,[2],0.4 µM
same,IC50,[3],400 nM
same,IC50,[4],1200 nM
same,IC50,[1],600 nM
COc1cccc2c1C(=O)c1c(O)c3c(c(O)c1C2=O)C[C@@](O)(C(=O)CO)C[C@@H]3O[C@H]1C[C@H](N)[C@H](O)[C@H](C)O1 [DOXORUBICIN],IC50,[2],0.4 µM
same,IC50,[25],200 nM
same,IC50,[4],1700 nM
same,IC50,[1],700 nM
N[C@@H]1CCN(C(=O)c2cc3c(O)c4c(c(O)c3s2)C(=O)c2ccccc2C4=O)C1,IC50,[2],0.4 µM
same,IC50,[3],1100 nM
same,IC50,[4],1500 nM
same,IC50,[1],400 nM
O=C(NC1CCNCC1)c1cc2c(O)c3c(c(O)c2s1)C(=O)c1ccccc1C3=O,IC50,[2],1.4 µM
same,IC50,[3],3200 nM
same,IC50,[4],600 nM
same,IC50,[1],1600 nM

# Reference: ChEMBL document CHEMBL4837230, “Thiophene-2-carboxamide derivatives of anthraquinone: A new potent antitumor chemotype” (Eur J Med Chem, 2021)
